The values below come from ChEMBL document CHEMBL1201862, “PubChem BioAssay data set” (2004).

Calls of active or inactive are those of the source.

One may read the EC50 as the concentration giving half of the maximal effect. A word on the AC50: it is the concentration giving half of the maximal activity seen. In general, IC50 refers to the point on the concentration scale where inhibition reaches its midpoint. One may read the CC50 as the concentration that lowers cell viability or growth by half.

Assay [1] relates to HEK293. Briefly: cells. The following applies: Homo sapiens.
The subject of assay [2] is HEK293. Briefly: cells. The conditions noted are these: Homo sapiens. The source holds these as a separate data set.
Assay [3] in a line: Luminescence Cell-Based Dose Retest to Confirm Inhibitors of Cancer Stem Cells. [Related pubchem assays (depositor defined):AID2717, AID2721]. Type of assay: functional. The following applies: Homo sapiens.
The nature of assay [4]: viability loss of HMLE_sh_eGFP cells – cell-based, luminescence, counter-screen for HMLE_sh_ECad selective toxicity project, dose response (AID 463074).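 Note: HMLE human mammary epithelial cells expressing control shRNA against eGFP.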 The format is functional, Homo sapiens. (In general: A counterscreen serves to expose hits that act by an unwanted route or on another target.)
The target in the next assay is T1, Streptokinase A (Streptococcus pyogenes serotype M1, UniProt P10520).
T1 sequence (P10520 whole entry): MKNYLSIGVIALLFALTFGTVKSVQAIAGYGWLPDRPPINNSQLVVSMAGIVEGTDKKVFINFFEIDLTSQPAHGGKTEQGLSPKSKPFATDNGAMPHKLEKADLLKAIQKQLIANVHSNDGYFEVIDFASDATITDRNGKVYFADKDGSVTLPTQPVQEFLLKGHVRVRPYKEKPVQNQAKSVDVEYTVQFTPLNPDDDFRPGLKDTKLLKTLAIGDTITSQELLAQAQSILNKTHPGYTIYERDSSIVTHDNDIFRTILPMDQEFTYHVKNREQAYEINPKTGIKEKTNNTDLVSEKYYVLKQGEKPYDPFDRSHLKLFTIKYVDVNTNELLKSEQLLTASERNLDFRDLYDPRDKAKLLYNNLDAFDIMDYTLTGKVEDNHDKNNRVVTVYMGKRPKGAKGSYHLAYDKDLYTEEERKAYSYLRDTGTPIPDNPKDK
As to the kind of experiment: viability-normalized secreted streptokinase activity reduction – plasminogen activation absorbance, OD405, dose response (AID 1914).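 Note: secreted streptokinase activity via plasminogen activation per viability signal from cell pellet.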 The format is functional, Streptococcus pyogenes M1 GAS.

Assay [5] addresses Intestinal-type alkaline phosphatase (Mus musculus, UniProt P24822). Briefly: PubChem AID 488785. Type of assay: functional.
For assay [6], the target named is T2, Alkaline phosphatase, tissue-nonspecific isozyme (Homo sapiens, UniProt P05186).
T2 sequence (P05186 whole entry): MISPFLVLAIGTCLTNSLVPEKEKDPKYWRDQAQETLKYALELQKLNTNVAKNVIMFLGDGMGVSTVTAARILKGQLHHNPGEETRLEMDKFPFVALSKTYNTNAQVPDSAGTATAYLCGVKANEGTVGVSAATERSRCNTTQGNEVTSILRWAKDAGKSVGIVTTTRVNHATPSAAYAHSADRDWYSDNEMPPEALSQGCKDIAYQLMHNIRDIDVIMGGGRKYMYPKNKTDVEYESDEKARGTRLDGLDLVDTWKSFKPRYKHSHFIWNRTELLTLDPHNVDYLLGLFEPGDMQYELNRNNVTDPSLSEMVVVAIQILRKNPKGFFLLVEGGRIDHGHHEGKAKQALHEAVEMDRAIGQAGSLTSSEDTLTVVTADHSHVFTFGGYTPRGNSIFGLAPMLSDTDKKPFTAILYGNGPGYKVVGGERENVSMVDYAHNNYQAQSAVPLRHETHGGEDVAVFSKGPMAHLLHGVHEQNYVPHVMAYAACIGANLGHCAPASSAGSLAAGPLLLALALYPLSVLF
As to the kind of experiment: TNAP enzyme inhibition by screening hits, dose response, selectivity assay for mouse IAP inhibitor project, biochemical, human TNAP, uHTS hits (AID 488906). Type of assay: functional.

Assay [7] deals with Intestinal-type alkaline phosphatase (Homo sapiens, UniProt P09923). Briefly: inhibition of human intestinal alkaline phosphatase – biochemical, dose response (AID 488876). Type of assay: functional.
Intestinal-type alkaline phosphatase (Homo sapiens, UniProt P09923), sequence (P09923 whole entry): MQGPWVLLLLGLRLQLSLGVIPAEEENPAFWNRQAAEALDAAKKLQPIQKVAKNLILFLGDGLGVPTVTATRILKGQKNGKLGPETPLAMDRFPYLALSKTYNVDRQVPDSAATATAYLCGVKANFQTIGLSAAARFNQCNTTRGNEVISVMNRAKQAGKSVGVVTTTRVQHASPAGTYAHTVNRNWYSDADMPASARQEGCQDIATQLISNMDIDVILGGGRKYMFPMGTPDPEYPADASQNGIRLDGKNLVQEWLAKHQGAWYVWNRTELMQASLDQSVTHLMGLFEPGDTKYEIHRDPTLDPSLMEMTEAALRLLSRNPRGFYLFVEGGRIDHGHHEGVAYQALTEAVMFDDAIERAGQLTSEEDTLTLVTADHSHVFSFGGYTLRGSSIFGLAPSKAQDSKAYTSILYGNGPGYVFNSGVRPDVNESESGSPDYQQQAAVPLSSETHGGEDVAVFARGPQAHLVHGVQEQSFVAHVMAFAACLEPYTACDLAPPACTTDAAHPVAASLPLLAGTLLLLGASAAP
Assay [8] in a line: Trypanosoma cruzi growth suppression in host cells – NIH3T3 host cells, beta-gal luminescence, confirmation (AID 2044).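 Note: intracellular parasites grown in NIH/3T3 mouse fibroblasts as host cells; luminescent beta-galactosidase reporter signal from transgenic T. cruzi replicating inside host cells; inhibitors lower the luminescence signal.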 Type of assay: functional, cell-based.
The nature of assay [9]: NIH3T3 cell viability loss – ATP luminescence, mouse fibroblasts, counter-screen, dose response (AID 2010).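 Note: cells exposed to compound for about 90 hours before reading.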 Type of assay: functional, cell-based. The following applies: NIH3T3.
Assay [10] has as its target T3, Ubiquitin-conjugating enzyme E2 N (Homo sapiens, UniProt P61088).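 Note: Dose-response confirmation in a TR-FRET assay detecting UBC13-driven polyubiquitin chain formation, inhibition measured.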
T3 sequence (P61088 whole entry): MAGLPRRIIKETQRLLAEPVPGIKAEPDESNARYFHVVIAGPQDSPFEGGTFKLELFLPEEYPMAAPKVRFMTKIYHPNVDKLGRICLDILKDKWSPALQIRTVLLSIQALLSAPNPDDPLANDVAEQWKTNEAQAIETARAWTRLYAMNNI
The format is functional.

For assay [11], the target named is T4, DNA repair protein RAD52 homolog (Homo sapiens, UniProt P43351).
T4 sequence (P43351 whole entry): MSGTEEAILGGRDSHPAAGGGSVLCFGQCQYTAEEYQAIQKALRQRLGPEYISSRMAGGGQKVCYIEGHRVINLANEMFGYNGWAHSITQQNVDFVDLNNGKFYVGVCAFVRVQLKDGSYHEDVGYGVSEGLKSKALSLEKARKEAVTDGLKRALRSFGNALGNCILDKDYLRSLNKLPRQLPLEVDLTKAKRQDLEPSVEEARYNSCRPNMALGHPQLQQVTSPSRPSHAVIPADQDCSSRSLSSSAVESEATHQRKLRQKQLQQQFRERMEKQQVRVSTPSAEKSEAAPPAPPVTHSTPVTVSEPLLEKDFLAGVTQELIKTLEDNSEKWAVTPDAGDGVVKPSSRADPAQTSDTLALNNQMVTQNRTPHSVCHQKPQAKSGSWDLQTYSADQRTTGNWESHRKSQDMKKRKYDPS
Type of assay: functional, biochemical.

A further assay deals with Bcl-2-like protein 10 (Homo sapiens, UniProt Q9HD36). As to the kind of experiment: Bcl-B/TR3 peptide binding disruption – biochemical, fluorescence polarization, FITC-TR3 peptide, selectivity assay for Bfl-1 inhibitor project, primary screen (AID 748).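 Note: fluorescence polarization from a fluorescein-labelled TR3 peptide binding purified Bcl-B.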 On the technique in general: Polarisation of emitted light reports the rotation of a fluorescent probe.
Bcl-2-like protein 10, sequence (Q9HD36 whole entry): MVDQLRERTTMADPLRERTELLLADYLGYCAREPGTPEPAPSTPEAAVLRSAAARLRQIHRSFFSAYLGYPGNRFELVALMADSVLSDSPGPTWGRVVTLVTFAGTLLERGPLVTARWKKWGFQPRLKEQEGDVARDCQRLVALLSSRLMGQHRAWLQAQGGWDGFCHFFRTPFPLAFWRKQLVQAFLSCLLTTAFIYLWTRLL
The next assay has as its target T5, Aspartyl aminopeptidase (Plasmodium falciparum 3D7, UniProt Q8I2J3).
T5 sequence (Q8I2J3 whole entry): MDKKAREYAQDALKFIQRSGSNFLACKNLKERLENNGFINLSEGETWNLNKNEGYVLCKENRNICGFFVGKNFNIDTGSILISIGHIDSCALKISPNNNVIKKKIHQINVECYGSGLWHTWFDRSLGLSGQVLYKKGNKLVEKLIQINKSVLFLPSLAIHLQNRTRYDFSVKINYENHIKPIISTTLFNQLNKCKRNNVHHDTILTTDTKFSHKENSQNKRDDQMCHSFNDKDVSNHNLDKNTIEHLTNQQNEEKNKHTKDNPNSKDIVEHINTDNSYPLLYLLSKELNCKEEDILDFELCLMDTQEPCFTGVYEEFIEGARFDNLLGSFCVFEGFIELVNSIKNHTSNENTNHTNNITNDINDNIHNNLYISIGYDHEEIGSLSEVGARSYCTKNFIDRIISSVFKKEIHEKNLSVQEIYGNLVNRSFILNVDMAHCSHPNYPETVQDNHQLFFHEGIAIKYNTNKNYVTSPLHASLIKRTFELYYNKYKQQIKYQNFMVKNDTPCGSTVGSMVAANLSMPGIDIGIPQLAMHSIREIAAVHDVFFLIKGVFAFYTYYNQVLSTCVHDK

The target in the next assay is Procathepsin L (Homo sapiens, UniProt P07711).
Procathepsin L, sequence (P07711 whole entry): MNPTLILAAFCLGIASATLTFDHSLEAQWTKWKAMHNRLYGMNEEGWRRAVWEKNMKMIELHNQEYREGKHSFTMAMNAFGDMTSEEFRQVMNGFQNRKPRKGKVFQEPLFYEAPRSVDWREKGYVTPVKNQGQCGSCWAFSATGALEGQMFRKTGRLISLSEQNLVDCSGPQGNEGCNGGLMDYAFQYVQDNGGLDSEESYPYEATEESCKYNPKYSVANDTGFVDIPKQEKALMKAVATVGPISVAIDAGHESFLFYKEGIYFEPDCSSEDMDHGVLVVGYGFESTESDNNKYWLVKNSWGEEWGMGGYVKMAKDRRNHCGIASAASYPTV
Assay [12] can be described thus: viability loss in HeLa cells – cytotoxicity control for MgcRacGAP inhibitor project, dose response (AID 624300). Type of assay: functional.
Assay [13] deals with T6, Rac GTPase-activating protein 1 (Homo sapiens, UniProt Q9H0H5).
T6 sequence (Q9H0H5 whole entry): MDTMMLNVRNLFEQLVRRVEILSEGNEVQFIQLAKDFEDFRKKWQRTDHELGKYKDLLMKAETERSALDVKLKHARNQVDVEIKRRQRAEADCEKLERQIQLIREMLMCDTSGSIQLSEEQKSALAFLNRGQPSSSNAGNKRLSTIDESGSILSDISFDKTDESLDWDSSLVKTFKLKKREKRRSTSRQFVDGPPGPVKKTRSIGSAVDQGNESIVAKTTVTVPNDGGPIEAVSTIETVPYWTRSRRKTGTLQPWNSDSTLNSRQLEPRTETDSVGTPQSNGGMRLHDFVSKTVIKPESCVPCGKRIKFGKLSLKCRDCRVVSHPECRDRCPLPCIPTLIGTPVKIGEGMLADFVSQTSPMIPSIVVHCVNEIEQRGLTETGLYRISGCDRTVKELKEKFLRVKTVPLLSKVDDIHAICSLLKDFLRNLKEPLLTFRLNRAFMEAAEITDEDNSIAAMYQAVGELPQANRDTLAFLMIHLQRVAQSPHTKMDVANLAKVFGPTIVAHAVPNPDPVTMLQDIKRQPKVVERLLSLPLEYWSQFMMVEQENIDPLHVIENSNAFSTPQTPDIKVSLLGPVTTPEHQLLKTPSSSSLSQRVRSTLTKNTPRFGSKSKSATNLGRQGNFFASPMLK
As to the kind of experiment: blockers of MgcRacGAP-driven Rac1 GTP hydrolysis – biochemical, ADP Hunter fluorescence, primary and confirmatory, confirmation (AID 624330). Type of assay: functional.

Assay [14] is described as follows: IC50 of Artemis nuclease activity blockers – biochemical, fluorescence intensity, dose response (AID 720701).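 Note: Artemis endonuclease enzyme.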 The format is functional.

Intestinal-type alkaline phosphatase (Mus musculus, UniProt P24822), sequence (P24822 whole entry): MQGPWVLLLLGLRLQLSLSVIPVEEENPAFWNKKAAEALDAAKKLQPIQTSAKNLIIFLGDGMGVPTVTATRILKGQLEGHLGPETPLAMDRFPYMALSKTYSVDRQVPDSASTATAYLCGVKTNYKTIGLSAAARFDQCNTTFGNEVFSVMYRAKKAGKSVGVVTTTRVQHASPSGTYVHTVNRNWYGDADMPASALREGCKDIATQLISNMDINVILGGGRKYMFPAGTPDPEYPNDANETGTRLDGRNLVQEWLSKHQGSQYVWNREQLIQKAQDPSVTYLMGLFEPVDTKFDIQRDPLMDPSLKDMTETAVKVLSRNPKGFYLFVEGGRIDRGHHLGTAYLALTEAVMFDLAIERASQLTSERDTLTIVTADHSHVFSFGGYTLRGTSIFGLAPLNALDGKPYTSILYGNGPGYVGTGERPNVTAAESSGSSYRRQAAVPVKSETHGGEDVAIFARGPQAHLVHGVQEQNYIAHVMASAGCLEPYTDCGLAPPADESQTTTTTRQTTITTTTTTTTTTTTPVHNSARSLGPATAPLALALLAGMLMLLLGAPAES

For `C1COCCO1.CCOc1ccc(N2C(=O)CC(N(CCc3ccc(OC)c(OC)c3)C(S)=Nc3ccccc3)C2=O)cc1` (stereo not drawn), the EC50 in the assay on HEK293 [1] and with HEK293 [2] was > 59.7 µM (inactive) in each case.
For `CN(c1ccccc1)S(=O)(=O)c1ccc(-c2ccccc2)cc1`, the AC50 in [3] was 2.66 µM (active); in assay [4], 62.2 µM (active).
Consider `Cc1cc(Cl)ccc1NC(=S)NCCC(c1ccccc1)c1ccccc1`, for which the concentration for a half-maximal effect (EC50) at Streptokinase A was 48.5 µM (active). In addition, the IC50 in [5] is 7.04 µM (active); in assay [6], 80.1 µM (active); in assay [7], > 100 µM (inactive).
`Cc1cc(N2CCN(C)CC2)nc2ccc(NC(=S)N3CCN(c4ccc(Cl)cc4)CC3)cc12`: the EC50 in assay [8] is 762 nM (active); in assay [9], 11.9 µM (active). Further, the AC50 in [3] is 0.367 µM (active); in assay [4], 184 µM (active); in [11] it was 3.07 µM (active). For the same molecule, the IC50 in [10] was > 20 µM (inactive).
As for `O=C(COc1ccccc1C(=O)N/N=C\c1ccc(O)c(O)c1)N/N=C/c1ccc(O)c(O)c1`, the IC50 on Bcl-2-like protein 10 is 1.07 µM (active); at Aspartyl aminopeptidase, 1.5 µM (active); against Procathepsin L, > 59.6 µM (not active); in assay [5], 12.8 µM (active); in assay [6], > 100 µM (inactive); in assay [7], > 100 µM (inactive). For the same molecule, the IC50 in [13] is 21.1 µM (active); in [14], 1.91 µM (active). Moreover, the CC50 in [12] was 100 µM (active).
